Measurements taken from patent US11440907B1 (Merck Patent GmbH, priority 2018, dated 2022).

Tests used:
Assay type in all cases: cell-based
[1] = tested on: intracellular calcium flux in Colo-205 cells; assay: Calcium flux assay (FLIPR Calcium 5 Assay Kit, FLIPR3); settings: Homo sapiens, 0.6 h, calcium flux measured over 36 minutes, read-out: Colo 205 Calcium Flux assay 384w Boston Ca assay FLIPR3 Colo EC50
Procedure: Compounds described herein induced ER stress by causing intracellular calcium flux. Calcium flux was measured in Colo-205 cells using the FLIPR® Calcium 5 Assay Kit according to manufacturer's protocol (Molecular Devices, Cat. #R8186) on a FLIPR3 system (Molecular Devices). Calcium flux is measured over 36 minutes. The Colo-205 calcium flux assay data are summarized in Table 3: A<0.6 μM; 0.6 μM≤B<2.0 μM; 2.0 μM≤C<10.0 μM; D≥10.0 μM.

[2] = tested on: β-catenin-TCF-mediated reporter transcription activity in Colo 205 cells; assay: Colo 205 reporter assay (TCF/LEF promoter-driven firefly luciferase); settings: Homo sapiens; Colo 205 TCF/LEF luciferase reporter, 5 hours after compound addition, 384 well; read-out: Colo205 IC50
[3] = tested on: NCI-H929 (Multiple myeloma cells); assay: Cell viability (ATPLite) in NCI-H929; settings: Homo sapiens, 96 hours
Procedure: Cells were removed from liquid nitrogen storage, thawed and expanded in appropriate growth media. Once expanded, cells were seeded in 384-well tissue culture treated plates at 500 cells per well. After 24 hours, cells were treated for either 0 hours or treated for 96 hours with a testing compound (at the concentrations of 100 nM and 2 uM). At the end of either 0 hours or 96 hours, cell status was analyzed using ATPLite (Perkin Elmer) to assess the biological response of cells to the testing compound.

[4] = tested on: XBP1(u)-luciferase splicing reporter in HepG2 hepatoma cells; assay: HepG2 XBP1 reporter assay (XBP1(u)-Luc); settings: Homo sapiens, 6 h, six hours after addition of compound

| SMILES | EC50 [1] [nM] | IC50 [2] [nM] | IC50 [3] [nM] | IC50 [4] [nM] |
| --- | --- | --- | --- | --- |
| COC(=O)c1ccc(OC)c(C2COCCCN2c2cc(C)nc(N)n2)c1 (centres unmarked) [I-289] | < 600 | 300 to 1000 |  |  |
| COc1cc(C2COCCCN2c2cc(C)nc(N)n2)c(Cl)cc1OCC(=O)N1CCCCC1 [D-24] |  |  | ≥ 25000 | < 600 |
| Cc1cc(N2CCCOCC2c2cc(C)c(N3CCC(C)(O)CC3)cc2Cl)nc(N)n1 [D-13] |  |  | ≥ 25000 | 600 to 2000 |
| Cc1cc(N2CCCOCC2c2ccc(CS(C)(=O)=O)nc2F)nc(N)n1 [D-33] |  |  | ≥ 25000 | 2000 to 5000 |
| Cc1cc(N2CCCOC[C@H]2c2cc(O)c(OC(F)F)cc2Cl)nc(N)n1 [D-56] |  |  | 10000 to 25000 | ≥ 5000 |
| Cc1cc(N2CCCOC[C@H]2c2cc3c(cc2Cl)N(C)CC3)nc(N)n1 [D-144] |  |  | ≥ 25000 | ≥ 5000 |
| Cc1cc(N2CCCOC[C@H]2c2ccc(S(=O)(=O)C3CCC3)cc2Cl)nc(N)n1 [D-141] |  |  | 1000 to 10000 | ≥ 5000 |
| COc1cc(N2CCCOCC2c2cc(C)nc(N)n2)c(Cl)cc1OCC(=O)Nc1ccccc1 [D-39] |  |  | 1000 to 10000 | 600 to 2000 |
| Cc1cc(N2CCCOC[C@@H]2c2ccc(S(=O)(=O)C3CCC3)cc2Cl)nc(N)n1 [D-3] |  |  | ≥ 25000 | 600 to 2000 |
| Cc1cc(N2CCCOCC2c2cc(O)c(C(=O)O)cc2Cl)nc(N)n1 [D-23] |  |  | ≥ 25000 | < 600 |
| Cc1cc(N2CCCOCC2c2ccc(CS(C)(=O)=O)[nH]c2=O)nc(N)n1 [D-146] |  |  | ≥ 25000 | ≥ 5000 |
| Cc1cc(N2CCCOCC2c2ccc(C3CCNCC3)cc2Cl)nc(N)n1 [D-61] |  |  | 1000 to 10000 | < 600 |
| COc1cc(F)c(F)cc1[C@@H]1COCCCN1c1cc(C)nc(N)n1 [D-5] |  |  | 1000 to 10000 | 600 to 2000 |
| Cc1cc(N2CCCOC[C@H]2c2cc(N)c(C(F)(F)F)cc2Cl)nc(N)n1 [D-145] |  |  | ≥ 25000 | ≥ 5000 |
| Cc1cc(N2CCCOC[C@H]2c2cc3c(cc2Cl)CCN3C)nc(N)n1 [D-27] |  |  | 10000 to 25000 | < 600 |
| Cc1cc(N2CCCOC[C@H]2c2ccc(CS(C)(=O)=O)cc2OC(F)F)nc(N)n1 [D-152] |  |  | ≥ 25000 | ≥ 5000 |
| Cc1cc(N2CCCOCC2c2cc(OC(F)F)c(Cl)cc2Cl)nc(N)n1 [D-11] |  |  | 10000 to 25000 | 2000 to 5000 |
| CCOc1cc(C2COCCCN2c2cc(C)nc(N)n2)c(Cl)cc1O [D-21] |  |  | 1000 to 10000 | < 600 |
| Cc1cc(N2CCCOC[C@H]2c2cc3c(cc2Cl)NCCC3)nc(N)n1 [D-143] |  |  | ≥ 25000 | ≥ 5000 |
| Cc1cc(N2CCCOC[C@@H]2c2ccc(NC(=O)C(F)F)cc2Cl)nc(N)n1 [D-8] |  |  | ≥ 25000 | 600 to 2000 |
| Cc1cc(N2CCCOC[C@@H]2c2ccc(NC(=O)CCO)cc2Cl)nc(N)n1 [D-6] |  |  | 1000 to 10000 | 600 to 2000 |
| CNc1cc(Cl)c([C@@H]2COCCCN2c2cc(C)nc(N)n2)cc1C [D-25] |  |  | ≥ 25000 | < 600 |
| CCOC(=O)Cc1cc(C2COCCCN2c2cc(C)nc(C)n2)c(Cl)cc1C#N [D-35] |  |  | 10000 to 25000 | 2000 to 5000 |
| COc1cc(C2COCCCN2c2cc(C)nc(N)n2)c(Cl)cc1OCCCC#N [D-18] |  |  | 1000 to 10000 | 600 to 2000 |
| COc1cc(C2COCCCN2c2cc(C)nc(N)n2)c(Cl)cc1N1CCOCC1 [D-19] |  |  | 1000 to 10000 | 600 to 2000 |
| Cc1cc(N2CCCOC[C@H]2c2ccc(OS(C)(=O)=O)cc2OC(F)(F)F)nc(N)n1 [D-158] |  |  | ≥ 25000 | ≥ 5000 |
| Cc1cc(N2CCCOC[C@@H]2c2ccc(OCS(C)(=O)=O)cc2Cl)nc(N)n1 [D-1] |  |  | ≥ 25000 | 600 to 2000 |

The next lines start with the values.

| EC50 [1] [nM] | IC50 [2] [nM] | IC50 [3] [nM] | IC50 [4] [nM] | SMILES |
| --- | --- | --- | --- | --- |
|  |  | 1000 to 10000 | 600 to 2000 | Cc1cc(N2CCCOC[C@@H]2c2cc(N3CC[C@H](O)C3)ccc2Cl)nc(N)n1 [D-64] |
|  |  | < 1000 | < 600 | CCc1cc(N2CCCOCC2c2cc(O)c(OC)cc2Cl)nc(N)n1 [D-71] |
|  |  | < 1000 | < 600 | Cc1cc(N2CCCOCC2c2cc(O)c(CS(C)(=O)=O)cc2Cl)nc(N)n1 [D-65] |
|  |  | < 1000 | < 600 | CCc1cc(N2CCCOCC2c2ccc(CS(C)(=O)=O)cc2Cl)nc(N)n1 [D-52] |
|  |  | < 1000 | < 600 | Cc1cc(N2CCCOC[C@@H]2c2cc(O)c(OC(F)F)cc2Cl)nc(N)n1 [D-57] |
|  |  | 1000 to 10000 | 600 to 2000 | CCC(=O)Nc1cc(Cl)c(C2COCCCN2c2cc(C)nc(N)n2)cc1C [D-12] |
|  |  | < 1000 | < 600 | Cc1cc(N2CCCOCC2c2ncc(CS(C)(=O)=O)cc2Cl)nc(N)n1 [D-40] |
|  |  | < 1000 | < 600 | CCc1cc(N2CCCOCC2c2cc(O)c(NC(C)=O)cc2Cl)nc(N)n1 [D-110] |
|  |  | < 1000 | < 600 | Cc1cc(N2CCCOCC2c2ccc(O)cc2C(F)(F)F)nc(N)n1 [D-111] |
|  |  | < 1000 | < 600 | Cc1cc(N2CCCOC[C@@H]2c2cc(N)c(C(F)(F)F)cc2Cl)nc(N)n1 [D-10] |
|  |  | < 1000 | < 600 | Cc1cc(N2CCCOC[C@@H]2c2ncc(CS(C)(=O)=O)cc2Cl)nc(N)n1 [D-81] |
|  |  | < 1000 | < 600 | Cc1cc(N2CCCOC[C@H]2c2ccc(OCS(C)(=O)=O)cc2Cl)nc(N)n1 [D-2] |
|  |  | 1000 to 10000 | 600 to 2000 | Cc1cc(N2CCCOCC2c2ncc(CS(C)(=O)=O)cc2F)nc(N)n1 [D-43] |
|  |  | < 1000 | < 600 | Cc1cc(N2CCCOC[C@@H]2c2cc(O)c(C)cc2Cl)nc(N)n1 [D-20] |
|  |  | 1000 to 10000 | 600 to 2000 | CCOC(=O)OCc1cc(Cl)c(C2COCCCN2c2cc(C)nc(N)n2)cc1OCC [D-42] |
|  |  | < 1000 | < 600 | Cc1cc(N2CCCOC[C@@H]2c2cc(N)c(OC(F)(F)F)cc2Cl)nc(N)n1 [D-45] |
|  |  | < 1000 | < 600 | Cc1cc(N2CCCOC[C@@H]2c2cc(O)c(OC(F)(F)F)cc2Cl)nc(N)n1 [D-119] |
|  |  | < 1000 | < 600 | Cc1cc(N2CCCOC[C@@H]2c2cc(O)c(C(=O)N(C)C)cc2Cl)nc(N)n1 [D-117] |
|  |  | < 1000 | < 600 | Cc1cc(N2CCCOC[C@@H]2c2cc(O)c(CS(C)(=O)=O)cc2Cl)nc(N)n1 [D-86] |
|  |  | 1000 to 10000 | < 600 | Cc1cc(N2CCCOCC2c2ccc(CS(C)(=O)=O)nc2OC(F)F)nc(N)n1 [D-54] |

| EC50 [1] [nM] | IC50 [2] [nM] | IC50 [3] [nM] | IC50 [4] [nM] | SMILES |
| --- | --- | --- | --- | --- |
|  |  | < 1000 | < 600 | Cc1cc(N2CCCOCC2c2cc(O)c(OC(F)F)cc2Cl)nc(N)n1 [D-50] |
|  |  | < 1000 | < 600 | CCc1cc(N2CCCOC[C@@H]2c2cc(O)c(OC)cc2Cl)nc(N)n1 [D-104] |
|  |  | < 1000 | < 600 | Cc1cc(N2CCCOCC2c2cnc(CS(C)(=O)=O)cc2Cl)nc(N)n1 [D-49] |
|  |  | < 1000 | < 600 | Cc1cc(N2CCCOC[C@@H]2c2ccc(CS(C)(=O)=O)cc2OC(F)F)nc(N)n1 [D-22] |
|  |  | < 1000 | < 600 | CNC(=O)[C@]1(C)CNc2cc(Cl)c([C@H]3COCCCN3c3cc(C)nc(N)n3)cc2O1 [D-116] |
|  |  | < 1000 | < 600 | Cc1cc(N2CCCOC[C@@H]2c2cc3c(cc2Cl)CCN3C)nc(N)n1 [D-28] |
|  |  | < 1000 | < 600 | CNc1cc(Cl)c([C@H]2COCCCN2c2cc(C)nc(N)n2)cc1C [D-26] |
|  |  | < 1000 | < 600 | CCc1cc(N2CCCOC[C@@H]2c2ccc(CS(C)(=O)=O)cc2Cl)nc(N)n1 [D-59] |
|  |  | < 1000 | < 600 | Cc1cc(N2CCCOC[C@@H]2c2cc3c(cc2Cl)OCC(C)(C)CO3)nc(N)n1 [D-31] |
|  |  | < 1000 | 600 to 2000 | Cc1cc(N2CCCOC[C@H]2c2ccc(NC(=O)CCO)cc2Cl)nc(N)n1 [D-7] |
|  |  | < 1000 | < 600 | COc1cc([C@H]2COCCCN2c2cc(C)nc(N)n2)c(Cl)cc1OCC#N [D-38] |
|  |  | < 1000 | < 600 | Cc1cc(N2CCCOC[C@H]2c2ccc(C3CCNCC3)cc2Cl)nc(N)n1 [D-68] |
|  |  | < 1000 | < 600 | CCOC(=O)[C@]1(C)CNc2cc(Cl)c([C@H]3COCCCN3c3cc(C)nc(N)n3)cc2O1 [D-36] |
|  |  | < 1000 | < 600 | Cc1cc(N2CCCOC[C@H]2c2cc(N3CC[C@H](O)C3)ccc2Cl)nc(N)n1 [D-63] |
|  |  | < 1000 | < 600 | Cc1cc(N2CCCOCC2c2ccc(CS(C)(=O)=O)cc2Cl)nc(N)n1 [D-55] |
|  |  | < 1000 | < 600 | Cc1cc(N2CCCOC[C@@H]2c2ccc(CS(C)(=O)=O)cc2OC(F)(F)F)nc(N)n1 [D-41] |
|  |  | < 1000 | < 600 | COc1ccc(C2COCCCN2c2cc(C)nc(N)n2)c(Cl)c1 [D-51] |
|  |  | < 1000 | < 600 | Cc1cc(N2CCCOC[C@@H]2c2cc3c(cc2Cl)N(C)CC3)nc(N)n1 [D-14] |
|  |  | < 1000 | < 600 | CCOc1cc([C@H]2COCCCN2c2cc(C)nc(N)n2)c(Cl)cc1OC [D-34] |
|  |  | < 1000 | ≥ 5000 | Cc1cc(N2CCCOC[C@H]2c2ccc(NC(=O)C(F)F)cc2Cl)nc(N)n1 [D-142] |
